Results on 95 compounds are retold here after PubChem BioAssay AID1117319 (Southern Research Institute, 2015).

Records with an inconclusive call do not appear.

This assay has as its target Virion infectivity factor (Human immunodeficiency virus type 1 group M subtype B (isolate BH10)) + Virion infectivity factor (Human immunodeficiency virus type 1 group M subtype B (isolate BRU/LAI)) + Virion infectivity factor (Human immunodeficiency virus type 1 group M subtype B (isolate PCV12)) + Virion infectivity factor (Human immunodeficiency virus type 1 group M subtype B (isolate HXB2)) + DNA dC->dU-editing enzyme APOBEC-3G (Homo sapiens) (UniProt P69720+P69721+P69722+P69723+Q9HC16). Briefly: inhibitors of Vif binding to APOBEC3G peptide, primary screen, biochemical, TR-FRET, GST-Vif 1-94, biotin-A3G peptide, dose response retest (AID 1117319).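 Note: Vif residues 1-94 fused to GST binding biotinylated APOBEC3G peptide 110-148.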 For orientation: Time-resolved FRET reads energy transfer from a long-lived donor to a nearby acceptor.
By IC50 is commonly meant the concentration at which inhibition is half-maximal. As for `Cc1ccccc1-c1nc(CN2CCC(C(=O)N3CCN(c4ccccn4)CC3)CC2)c(C)o1`, the IC50 is 43.3 µM. `Oc1ccc(NCc2cccc(OCc3ccc(F)cc3)c2)cc1`: the IC50 is 2.37 µM. Next, `C/C(=N\Nc1ccc([N+](=O)[O-])cc1[N+](=O)[O-])c1cc2c(ccc3ccccc32)oc1=O`: 2.92 µM; `CC1=CC(C)(C)N2C(=O)C(=Nc3ccc(O)cc3)c3cccc1c32`: 3.5 µM; `O=C(NCCc1ccccc1)c1ccc2nc(-c3ccco3)c(-c3ccco3)nc2c1`: 3.01 µM. Then `O/N=C1\CCC\C1=C/c1ccco1`, with 7.57 µM; and `CCCNC1=C(C)C(=O)C2=C(C1=O)C(COC(N)=O)[C@]1(OC)C3NC3CN21` (stereo not given in full), with 8.12 µM. In the case of `O=C(CCc1c[nH]c2ccccc12)N1CCN(c2ccc(O)cc2)CC1`, the IC50 is 13.3 µM. Then `COc1ccccc1NC(=O)COC(=O)c1cc2c(s1)CCC2`, with 17.6 µM; and `COCCNC(=O)Nc1ccc2nc(-c3ccco3)c(-c3ccco3)nc2c1`, with 0.25 µM; and `CC1(C)CC2(CC(c3ccccc3F)c3ccc(O)c(O)c3O2)NC(=S)N1` (stereo not given), with 13.7 µM.

`NN=C1C(Cl)=C(Cl)C(Cl)=C1Cl`: the IC50 is 10.6 µM. With `CCOc1ccc(NCC2CCOC(C)(C)C2)cc1` (stereo not given), the IC50 was 9.47 µM. As to `Cc1cc2c(N)cccc2nn1`, the IC50 was below 0.195 µM. For the compound `CN(C)S(=O)(=O)c1cccc(NC(=S)N/N=C/c2ccc(O)c(O)c2O)c1`, the IC50 is 1.88 µM. Then `O=[N+]([O-])c1c(NCCO)cc(Sc2nc3ccccc3s2)c2nonc12`, with 34.9 µM; and `Cc1c(NC(=O)CN2CCN(c3ccc(O)cc3)CC2)c(=O)n(-c2ccccc2)n1C`, with 10.2 µM. Next, `CCOC(=O)C(C(=O)OCC)c1cc(Br)c2noc3c2c1C(=O)c1ccccc1-3`: 2.45 µM. Then `Cc1c(C(=O)N2CCN(c3ccccc3F)CC2)sc2nc(-c3ccccc3)cn12`, with 93 µM; and `CCOc1cccc(CNc2ccc(O)cc2)c1OCc1ccccc1Cl`, with 6.61 µM; and `COc1ccc2ccccc2c1C1CC(=O)N2CN(Cc3ccco3)CSC2=C1C#N` (stereo not given), with 53.6 µM. With `O=C1CC(=O)N(Cc2ccco2)C(=O)N1`, the IC50 was 4.49 µM.

Turning to `O=[N+]([O-])c1cc2no[n+]([O-])c2cc1N1CCCCC1`, the IC50 is 7.67 µM. For `Cc1cc(/C=C2\SC(=S)NC2=O)c(C)n1-c1ccccc1`, the IC50 is 14.1 µM.

For `CCN(CC)CCN1C(=O)c2ccccc2NC1c1ccc(N(C)C)cc1` (stereo not given), the IC50 is 90.1 µM.

In the case of `CC1(C)CC(=O)C2=C(C1)NCN(Cc1ccc3c(c1)OCO3)C2`, the IC50 was 91.6 µM. Consider `CCOC(=O)C1=C(C)N=C2SC(C(=O)OC)=CC(=O)N2C1c1cc(OC)c(OC)c(OC)c1` (stereo not given), for which the IC50 was 11 µM. Take `CCC(c1nnnn1C(C)(C)CC)N(CCCO)Cc1cc2cc(C)cc(C)c2[nH]c1=O` (stereo not given): the IC50 is 0.49 µM. Next, `CCC(C)(C)n1nnnc1C(c1ccc2ncccc2c1)N1CCN(c2ccc(O)cc2)CC1` (stereo not given): 4.65 µM; `COC(=O)/C(=N/Nc1ccccc1C)N1CCCc2ccccc21`: 1.9 µM; `O=C(O)C[C@@H]1C(=O)O[C@@H]2C(COC(=O)c3cc(O)c(O)c(O)c3)O[C@@H](OC(=O)c3cc(O)c(O)c(O)c3)[C@@H](OC(=O)c3cc(O)c(O)c4c3[C@H]1[C@H](O)C(=O)O4)[C@H]2OC(=O)c1cc(O)c(O)c(O)c1` (stereo not given in full): below 0.195 µM. Turning to `Cc1cc(Cl)cc2c1NC(=O)[C@]21[C@@H]2C(=O)N(Cc3ccccc3)C(=O)[C@@H]2[C@@H]2CCCN21`, the IC50 was 38 µM. Regarding `CC1COCC(C)N1C1=C(Cl)C(=O)c2ccccc2C1=O` (stereo not given), the IC50 was 11 µM.

`O=C(O)CC1OCC=C2CN3CCC45C6=CC(=O)C(=O)C([N+](=O)[O-])=C6NC4C1C2CC35` (stereo not given): the IC50 is 16.3 µM. Then `O=C1NC(=O)C(=Cc2ccc(SC3CCCCC3)o2)C(=O)N1`, with 29 µM; and `COc1ccc2[nH]c(=O)c(CN(Cc3ccco3)C(c3nnnn3Cc3ccccc3)C(C)C)cc2c1` (stereo not given), with 94.6 µM. Regarding `CC1CCCN(Cc2c(O)ccc3c2O/C(=C\c2ccco2)C3=O)C1` (stereo not given), the IC50 was 2.89 µM. On to `COc1ccc(Cl)cc1NC(=O)CCS(=O)(=O)c1ccc(Br)cc1`, for which the IC50 was 8.09 µM. Next, `O=[n+]1c2c(n([O-])c3cc(Cl)ccc31)CCCC2`: 9.81 µM; `CCOC(=O)c1ccc(CC(=O)c2ccc(O)c(O)c2O)o1`: 11.5 µM; `COc1cc(NCCCNC(C)C)c2nccc(C)c2c1`: 52.8 µM. Then `CCOc1cccc(OCC)c2c(C)[n+](CC3CCCO3)c(C)c1-2` (stereo not given), with 0.85 µM; and `Cc1ccc(N2C(=O)NC(=O)/C(=C\C=C\c3ccco3)C2=O)cc1`, with 8.48 µM; and `CCNc1ccc(Br)cc(C(=O)/C=C/c2ccc3c(c2)OCO3)c1=O`, with 24.7 µM. As for `COc1ccc(OC)c(Nc2nc(-c3ccc(O)c(O)c3)cs2)c1`, the IC50 is 4.19 µM.

For `COc1ccc2nc(-c3ccco3)c(-c3ccco3)nc2c1`, the IC50 was 0.35 µM.

Take `CC(C(=O)O)N1C(=O)/C(=C/C=C/c2ccco2)SC1=S` (stereo not given): the IC50 is 0.39 µM. As for `O=C(O)C1Nc2c(C(=O)N3CCOCC3)cccc2C2C=CCC12` (stereo not given), the IC50 was 2.02 µM.

Take `O=C(Cc1cc(=O)[nH][nH]1)N/N=C/C=C/c1ccccc1`: the IC50 is 26.4 µM. Next, `Nc1cccc2c(O)cc(S(=O)(=O)O)cc12`: 2 µM; `O=[N+]([O-])c1ccc(O)c2ncccc12`: 46.5 µM. Then `CN(C)N1C(N)=C(C#N)C(c2cccnc2)C2=C1CCCC2=O` (stereo not given), with 11.4 µM; and `Cc1ccsc1C=Nc1ccc(O)cc1`, with 17.1 µM.

As to `O=C1/C(=C/C=C/c2ccco2)SC(=S)N1NS(=O)(=O)c1ccccc1`, the IC50 was 2.9 µM.

Regarding `CCOc1cccc(=O)c2c(C)oc(C)c12`, the IC50 was 6.16 µM. Then `CCC(=O)NC1=C(Cl)C(=O)C(NC(=O)CC)=C(Cl)C1=O`, with 22.9 µM; and `CN(C)c1ccc(N2C(=O)CC(Nc3ccc(N4CCOCC4)cc3)C2=O)cc1` (stereo not given), with 1.23 µM. Turning to `C=CCn1c(Sc2nc(C)cs2)nc2c1c(=O)[nH]c(=O)n2C`, the IC50 is 94.2 µM. Then `COc1ccc(NC(=O)CN(C)C(=O)c2cccc(-n3cccc3)c2)cc1`, with 14.9 µM. Regarding `Nc1cc(N)nc(SCc2cc([N+](=O)[O-])cc3c2OCOC3)n1`, the IC50 is 74.1 µM.

Take `COc1cccc(CNC(=O)CCNS(=O)(=O)c2cccs2)c1`: the IC50 is 1.44 µM. For `O=C(/C=C/c1cccs1)N1CCN(c2ccc(O)cc2)CC1`, the IC50 was 20.9 µM.

In the case of `O=C1/C(=C\c2ccco2)NC(=S)N1c1ccccc1`, the IC50 was 16.4 µM. With `O=c1cc(-c2ccc(O)c(O)c2)oc2cc(O)c(C3OC(CO)C(O)C(O)C3O)c(O)c12` (stereo not given), the half-maximal inhibitory concentration (IC50) is 12.7 µM. For `O=C(Cn1cnc2c(nnn2Cc2ccc(F)cc2)c1=O)NCc1ccco1`, the IC50 is 94.6 µM.

`O=C(O)C(Cc1ccccc1)N1C(=O)/C(=C/C=C/c2ccco2)SC1=S` (stereo not given): the IC50 was 2.11 µM. Then `CCCC1=NN2C(=N)/C(=C\c3ccc(SCc4ccco4)o3)C(=O)N=C2S1`, with 8.14 µM; and `FC(F)(F)c1cc(-c2ccco2)nc(NCc2ccco2)n1`, with 4.24 µM. As for `O=C(O)c1ccc(-n2nc(C(F)(F)F)c3c2-c2ccoc2CC3)cc1`, the IC50 was 58.6 µM.

As to `COc1cc(-c2ccc(Nc3ccccc3C(=O)O)c(OC)c2)ccc1Nc1ccccc1C(=O)O`, the IC50 was 0.94 µM. In the case of `Oc1ccc(C2Nc3cccc4cccc(c34)N2)c(O)c1`, the IC50 is 17.5 µM. `Cc1ccc(NC(=O)CN(C)C(=O)c2cccc(-n3cccc3)c2)cc1`: the IC50 was 4.56 µM. Next, `Cc1cc(-c2nc3c4c5c(sc4[nH]c(=O)n3n2)CCC5)c(C)o1`: 0.69 µM.

Turning to `COc1ccc(S(=O)(=O)c2c(N)n(Cc3ccco3)c3nc4ccccc4nc23)cc1`, the IC50 is 3.47 µM. Next, `CC(=O)N1CCN(c2nc(-c3ccco3)c3c(c2C#N)CC(C)(C)SC3)CC1`: 25.3 µM; `O=C(c1ccc(=O)oc1)N1CCCc2ccccc21`: 38.3 µM. Next, `Cc1ccc(/C=C/C(=O)Nc2ncc(C)s2)o1`: 7.07 µM; `O=C(CCN1C(=O)/C(=C/c2cccs2)SC1=S)NC1=NCCS1`: 12.3 µM; `Cc1noc(/C=C/c2ccco2)c1S(=O)(=O)N1CCC(C(=O)NCc2ccco2)CC1`: 1.84 µM. Then `CCN(CC(=O)Nc1c(F)cccc1F)C(=O)c1cccc(-n2cccc2)c1`, with 20.9 µM.

Turning to `O=C1NC(=S)SC1=C1CCCC1`, the IC50 is 6.2 µM.

`C=C(C)C(=O)Nc1cccc(C2=NOC3(C2)C[C@@H](C(N)=O)N(C(=O)CCCCC)C3)c1` (stereo not given in full): the IC50 is 0.22 µM. Next, `CCCCC1=CC2=CC(=O)C(C)(OC(=O)C3CCCC3)C(=O)C2=CO1` (stereo not given): 15.2 µM; `CC(C)C1Nc2ccc(C(=O)O)cc2C2C=CCC21` (stereo not given): 8.06 µM; `O=C1CCCC/C1=C/Nc1ccc2c(c1)OCO2`: 5.94 µM.

In the case of `NC(=S)N=Nc1c(O)cc(O)c2[nH]c(=O)ccc12`, the IC50 is 8.04 µM. Next, `Cc1cccc(N2C(=O)/C(=C/c3ccc(CN(CCC#N)S(C)(=O)=O)o3)C(=O)NC2=S)c1`: 22.9 µM; `COc1cccc(-c2cn3nc4c(nc3n2)CCCC4)c1`: 17.6 µM. Consider `Cc1ccccc1NC(=O)c1c(C)[nH]c(=S)c(C#N)c1-c1ccco1`, for which the IC50 was 18.7 µM.

Turning to `CCOC(=O)C1=C(c2ccccc2)N=c2s/c(=C\c3ccco3)c(=O)n2C1c1cccs1` (stereo not given), the IC50 was 3.76 µM.

Take `COC(=O)C1=C(C)N(Cc2ccccc2)C(=O)/C1=C\c1ccco1`: the IC50 was 11.2 µM.

For `O=C(O)CSc1c2c(nc3cc(C(=O)N4CCOCC4)ccc13)CCCC2`, the IC50 is 5.6 µM. Next, `CC1(OC(=O)C2CCCC2)C(=O)C=C2C=C(c3ccsc3)OC=C2C1=O` (stereo not given): 8.75 µM.

In the case of `O=[N+]([O-])c1ccc(/C=N/Nc2nc(N3CCCC3)nc(N3CCCC3)n2)o1`, the IC50 was 54.2 µM. For the compound `Cc1ncc(CO)c(/C=N/NC(=O)c2cc(O)c(O)c(O)c2)c1O`, the IC50 is 2.45 µM.
